The values that follow come from PMC7056318, “An algal enzyme required for biosynthesis of the most abundant marine carotenoids” (Science Advances, 2020).

Type in all cases: biochemical
Assay [1] deals with T1, PtVDE (Phaeodactylum tricornutum, UniProt B7FUR6).
T1 construct: gene VDE
T1 sequence (B7FUR6 105-437): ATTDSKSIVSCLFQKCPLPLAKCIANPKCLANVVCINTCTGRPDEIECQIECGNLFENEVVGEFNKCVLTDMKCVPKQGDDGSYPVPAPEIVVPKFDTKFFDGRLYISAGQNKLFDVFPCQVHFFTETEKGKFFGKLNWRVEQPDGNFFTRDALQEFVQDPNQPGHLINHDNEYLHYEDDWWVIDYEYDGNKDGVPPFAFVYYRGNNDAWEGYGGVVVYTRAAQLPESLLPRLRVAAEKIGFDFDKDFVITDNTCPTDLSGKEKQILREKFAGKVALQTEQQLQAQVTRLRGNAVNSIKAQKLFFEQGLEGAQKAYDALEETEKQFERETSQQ
In words: HPLC de-epoxidase assay, dose-response.

Assay [2] addresses T2, PtVDL1 (Phaeodactylum tricornutum, UniProt B7G087).
T2 construct: gene VDL1
T2 sequence (B7G087 112-453): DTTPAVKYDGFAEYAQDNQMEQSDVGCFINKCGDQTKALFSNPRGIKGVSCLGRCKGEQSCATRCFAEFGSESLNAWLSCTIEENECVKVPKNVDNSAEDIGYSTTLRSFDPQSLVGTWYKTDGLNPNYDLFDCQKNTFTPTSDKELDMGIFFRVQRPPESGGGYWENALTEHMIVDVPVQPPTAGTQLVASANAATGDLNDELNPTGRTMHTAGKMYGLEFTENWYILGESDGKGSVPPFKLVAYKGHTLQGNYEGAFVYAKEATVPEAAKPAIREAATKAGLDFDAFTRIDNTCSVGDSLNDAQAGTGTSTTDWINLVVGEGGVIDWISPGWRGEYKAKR
Nature of the assay: HPLC tautomerase assay, dose-response.

The target in assay [3] is T3, VDL1 from T. pseudonana (Thalassiosira pseudonana, UniProt B8C0W7).
T3 construct: gene THAPSDRAFT_22076
T3 sequence (B8C0W7 103-423): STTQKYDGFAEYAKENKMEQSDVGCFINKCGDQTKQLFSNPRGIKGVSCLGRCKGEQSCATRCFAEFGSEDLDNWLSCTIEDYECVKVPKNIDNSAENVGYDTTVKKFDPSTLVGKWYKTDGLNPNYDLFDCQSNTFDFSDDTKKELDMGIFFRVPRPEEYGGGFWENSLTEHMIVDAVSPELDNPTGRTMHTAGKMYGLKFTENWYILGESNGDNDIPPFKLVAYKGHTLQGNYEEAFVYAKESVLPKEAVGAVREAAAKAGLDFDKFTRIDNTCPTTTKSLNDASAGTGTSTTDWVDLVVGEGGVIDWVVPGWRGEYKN
Nature of the assay: HPLC, conversion of violaxanthin to neoxanthin. To be noted: pH 5.2, 20 °C, MGDG, 3 h.

For orientation: IC50 means the midpoint of a concentration-inhibition curve.

In the case of `OC(CS)C(O)CS` (stereo not drawn) [DTT], the IC50 in assay [1] turned out to be 0.68 mM; in assay [2], 73 mM.

For the compound `CC(/C=C/C=C(C)/C=C/[C@@]12O[C@]1(C)C[C@@H](O)CC2(C)C)=C\C=C\C=C(C)\C=C\C=C(C)\C=C\[C@@]12O[C@]1(C)C[C@@H](O)CC2(C)C` [violaxanthin], the “HPLC, conversion of violaxanthin to neoxanthin” value in assay [3] is “also showed violaxanthin-neoxanthin tautomerase activity in vitro”.
